For orientation: Km means the concentration of substrate that gives half-maximal velocity.

From US20130210099A1, “METHOD FOR THE PRODUCTION OF ERYTHRITOL” (ANNIKKI GMBH, priority 2010, published 2013) come the findings set out here.

Data set [1] addresses T1, GST::err1 fusion proteins (Trichoderma reesei, UniProt Q0GYU5).
T1 construct: made in house; host or cells: E. coli BL21 (DE3) pLysS
Description: Enzyme assay measuring NADPH-decrease with different substrates. The data set is classed as biochemical. Particulars: NADPH decrease at 340 nm; 400 μM NADPH, 10 mM substrate, 30° C., pH 7. The method, then:
The following 1 mL assay was performed: 400 μM NADPH (in 10 mM sodium phosphate buffer, pH 7), and 25 μL purified GST::err1 enzyme were mixed in an lmL quartz cuvette and incubated at 30° C. for 1 min. Then adding D-erythrose to a final concentration of 10 mM started the reaction. The decrease of NADPH concentration was measured in a spectrophotometer at 340 nm. As a control, a blank was performed using water instead of D-erythrose.

The target in data set [2] is T1, GST::err1 fusion proteins. Description: HPLC analysis of the enzymatic conversion of erythrose. Particulars: 4 mM NADPH, 5 mM erythrose, 25° C. or 37° C., 2 h. In kind it is biochemical. The method, then: The following 1 mL assays have been performed prior to HPLC analysis: Assay 1 comprised 4 mM NADPH (in 10 mM sodium phosphate buffer, pH 7), 25 μL purified GST::err1 enzyme, 5 mM erythrose and was incubated at 25° C. for 2 hours. Assay 2 was performed according to assay 1, but was incubated at 37° C. for 2 h. Both assays were stopped by incubating at 85° C. for 10 min and afterwards were filtered using 0.2 μm filters. As negative control assay 3 was performed like assay 1, but was immediately stopped by incubation at 85° C. for 10 min and assay 4 was performed according to assay 1, but sodium phosphate buffer instead of erythrose was used and it was immediately stopped at 85° C. for 10 min.
Analyses were performed using a Thermo Finnigan Surveyor HPLC instrument (Thermo Fisher Scientific, MA, US). All 10 μL samples were injected onto a Rezex RHM-Monosaccharide column (H+, 8%, 150×7.8 mm; Phenomenex, CA, US). Water was used as the mobile phase and elution was followed at 85° C., applying a flow rate of 0.3 mL/min for 20 min. 1 mM D-Erythrose (Sigma) and erythritol (Sigma) were used as reference substances.

The target of the next data set is T2, Err1 (Trichoderma reesei, UniProt Q0GYU5).
T2 sequence (Q0GYU5 1-331): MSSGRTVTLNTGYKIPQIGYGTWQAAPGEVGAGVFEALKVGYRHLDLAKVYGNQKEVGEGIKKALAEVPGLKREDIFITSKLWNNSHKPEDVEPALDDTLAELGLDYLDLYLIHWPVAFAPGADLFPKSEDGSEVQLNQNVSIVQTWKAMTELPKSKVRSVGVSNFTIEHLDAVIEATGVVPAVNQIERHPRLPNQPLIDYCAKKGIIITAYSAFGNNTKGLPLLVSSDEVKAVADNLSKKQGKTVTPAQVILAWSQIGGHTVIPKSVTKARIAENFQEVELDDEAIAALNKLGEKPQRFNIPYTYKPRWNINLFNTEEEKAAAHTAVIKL
Description: Determination of Vmax and Km according to Liepins et al. (2006).

Substrate in data set [3]: O=C[C@H](O)CO
Description: purified protein, by the assay type. The note with it: other: substrate of Err1.

Substrate in data set [4]: O=CC=O
Description: purified protein, by the assay type. The note with it: other: substrate of Err1.

`O=CC=O` [Glyoxal, glyoxal, reference compound]: the Absorbance decrease in data set [1] was −83.28 mAbs/min.
As to `O=C[C@H](O)[C@H](O)CO` [Erythrose, D-erythrose], the “enzymatic conversion of erythrose (HPLC)” value in data set [2] is listed as “reduced to erythritol”. For the same molecule, the “activity compared with the other substrates” value on Err1 (higher activity versus substrates with good activity for GLD1) is listed as “approximately 10 fold”. At Err1 (substrate of Err1), the Km is 16 µM and the Vmax worked out at 530 nkat/mg. Moreover, the Absorbance decrease in data set [1] is −83.77 mAbs/min.

B1: Err1 (Trichoderma reesei) (protein)
chain: MSSGRTVTLNTGYKIPQIGYGTWQAAPGEVGAGVFEALKVGYRHLDLAKVYGNQKEVGEGIKKALAEVPGLKREDIFITSKLWNNSHKPEDVEPALDDTLAELGLDYLDLYLIHWPVAFAPGADLFPKSEDGSEVQLNQNVSIVQTWKAMTELPKSKVRSVGVSNFTIEHLDAVIEATGVVPAVNQIERHPRLPNQPLIDYCAKKGIIITAYSAFGNNTKGLPLLVSSDEVKAVADNLSKKQGKTVTPAQVILAWSQIGGHTVIPKSVTKARIAENFQEVELDDEAIAALNKLGEKPQRFNIPYTYKPRWNINLFNTEEEKAAAHTAVIKL
Consider B1, for which, in data set [3], the Km was 900 µM and the Vmax was 9 µmol/min/mg. In data set [4], the Km stood at 2400 µM and the Vmax worked out at 22.5 µmol/min/mg.
